Read-outs that look alike come from different tables or passages of the source.
What was measured:
Format in all cases: biochemical
[1] = molecular target: T1, UGT1A4 (Homo sapiens, UniProt P22310); experiment: trifluoperazine N-glucuronidation in human liver microsomes, cocktail, LC-MS/MS; details: 0.5 µM trifluoperazine (probe cocktail set A), 5 mM UDPGA, 10 mM MgCl2, alamethicin, pH 7.4, 37 °C, 60 min; read-out: IC50 (μM) / Eudesmin
T1 construct: native enzyme in ultrapooled human liver microsomes (Corning 452161), read by trifluoperazine N-glucuronidation
T1 sequence (P22310 29-534): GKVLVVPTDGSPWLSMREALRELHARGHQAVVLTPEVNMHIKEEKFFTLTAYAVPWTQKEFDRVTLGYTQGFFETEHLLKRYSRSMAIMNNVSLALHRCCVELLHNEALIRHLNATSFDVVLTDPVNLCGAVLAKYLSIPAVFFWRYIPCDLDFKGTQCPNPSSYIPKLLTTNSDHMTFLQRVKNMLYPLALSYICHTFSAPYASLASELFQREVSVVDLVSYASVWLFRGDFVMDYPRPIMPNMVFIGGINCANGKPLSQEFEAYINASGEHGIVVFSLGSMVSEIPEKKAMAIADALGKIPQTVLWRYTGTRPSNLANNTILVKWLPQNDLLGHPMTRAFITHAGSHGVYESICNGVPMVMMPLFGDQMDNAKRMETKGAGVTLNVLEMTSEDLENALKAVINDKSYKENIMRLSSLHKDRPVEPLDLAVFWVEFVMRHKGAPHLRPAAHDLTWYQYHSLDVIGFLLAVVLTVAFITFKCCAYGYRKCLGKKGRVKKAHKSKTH

[2] = molecular target: T2, UGT2B7 (Homo sapiens, UniProt P16662); experiment: naloxone 3-beta-D-glucuronidation in human liver microsomes, cocktail, LC-MS/MS; details: 1 µM naloxone (probe cocktail set B), 5 mM UDPGA, 10 mM MgCl2, alamethicin, pH 7.4, 37 °C, 60 min; read-out: IC50 (μM) / Eudesmin
T2 construct: native enzyme in ultrapooled human liver microsomes (Corning 452161), read by naloxone 3-glucuronidation
T2 sequence (P16662 24-529): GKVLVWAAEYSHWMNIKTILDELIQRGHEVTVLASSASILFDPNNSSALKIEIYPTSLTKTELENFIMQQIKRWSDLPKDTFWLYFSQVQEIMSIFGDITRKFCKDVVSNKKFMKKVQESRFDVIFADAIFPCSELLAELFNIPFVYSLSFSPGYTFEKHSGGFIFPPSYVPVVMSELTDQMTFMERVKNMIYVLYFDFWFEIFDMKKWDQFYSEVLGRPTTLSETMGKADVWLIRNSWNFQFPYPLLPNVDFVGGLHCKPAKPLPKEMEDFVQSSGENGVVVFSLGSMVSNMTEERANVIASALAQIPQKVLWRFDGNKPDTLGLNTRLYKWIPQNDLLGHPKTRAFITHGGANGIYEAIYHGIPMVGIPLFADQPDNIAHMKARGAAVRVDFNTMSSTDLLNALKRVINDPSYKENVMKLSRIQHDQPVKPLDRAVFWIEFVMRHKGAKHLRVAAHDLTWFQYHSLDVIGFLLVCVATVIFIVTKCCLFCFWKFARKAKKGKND

[3] = molecular target: T3, UGT1A3 (Homo sapiens, UniProt P35503); experiment: chenodeoxycholic acid 24-acyl-glucuronidation in human liver microsomes, LC-MS/MS, Dixon plot; details: chenodeoxycholic acid 1–10 µM, 5 mM UDPGA, 10 mM MgCl2, alamethicin, pH 7.4, 30 min; competitive
T3 construct: native enzyme in ultrapooled human liver microsomes (Corning 452161), read by chenodeoxycholic acid 24-acyl-glucuronidation
T3 sequence (P35503 29-534): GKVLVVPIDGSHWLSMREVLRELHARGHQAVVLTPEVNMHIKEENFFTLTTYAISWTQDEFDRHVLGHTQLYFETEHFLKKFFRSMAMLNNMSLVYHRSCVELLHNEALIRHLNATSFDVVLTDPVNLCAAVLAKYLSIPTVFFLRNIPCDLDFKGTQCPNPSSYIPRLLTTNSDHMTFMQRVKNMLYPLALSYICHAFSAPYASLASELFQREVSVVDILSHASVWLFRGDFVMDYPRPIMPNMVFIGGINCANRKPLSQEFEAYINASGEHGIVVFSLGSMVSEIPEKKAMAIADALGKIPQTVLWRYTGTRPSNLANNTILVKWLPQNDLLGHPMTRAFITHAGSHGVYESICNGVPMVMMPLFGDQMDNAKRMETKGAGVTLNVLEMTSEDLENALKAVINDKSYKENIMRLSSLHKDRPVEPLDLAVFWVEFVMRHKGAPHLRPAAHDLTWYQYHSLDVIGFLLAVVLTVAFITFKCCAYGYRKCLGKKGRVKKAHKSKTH

[4] = molecular target: T4, UGT1A6 (Homo sapiens, UniProt P19224); experiment: N-acetylserotonin glucuronidation in human liver microsomes, cocktail, LC-MS/MS; details: 1 µM N-acetylserotonin (probe cocktail set B), 5 mM UDPGA, 10 mM MgCl2, alamethicin, pH 7.4, 37 °C, 60 min
T4 construct: native enzyme in ultrapooled human liver microsomes (Corning 452161), read by N-acetylserotonin glucuronidation
T4 sequence (P19224 27-532): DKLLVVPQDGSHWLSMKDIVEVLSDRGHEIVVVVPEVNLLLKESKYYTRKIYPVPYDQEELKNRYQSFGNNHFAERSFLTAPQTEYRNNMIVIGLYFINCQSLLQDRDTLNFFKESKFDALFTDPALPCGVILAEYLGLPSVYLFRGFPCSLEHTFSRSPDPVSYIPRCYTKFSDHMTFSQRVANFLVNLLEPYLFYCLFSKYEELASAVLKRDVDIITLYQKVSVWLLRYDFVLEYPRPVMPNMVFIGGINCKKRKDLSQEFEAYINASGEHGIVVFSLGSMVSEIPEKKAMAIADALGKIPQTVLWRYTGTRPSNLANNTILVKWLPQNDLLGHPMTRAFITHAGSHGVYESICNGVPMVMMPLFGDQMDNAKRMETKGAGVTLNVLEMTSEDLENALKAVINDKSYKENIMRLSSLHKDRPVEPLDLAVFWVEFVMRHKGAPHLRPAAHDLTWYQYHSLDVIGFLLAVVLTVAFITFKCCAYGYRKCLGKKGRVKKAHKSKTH

[5] = molecular target: T5, UGT1A1 (Homo sapiens, UniProt P22309); experiment: SN-38 glucuronidation in human liver microsomes, LC-MS/MS, Dixon plot; details: SN-38 0.2–2 µM, 5 mM UDPGA, 10 mM MgCl2, alamethicin, pH 7.4, 30 min; noncompetitive
T5 construct: native enzyme in ultrapooled human liver microsomes (Corning 452161), read by SN-38 glucuronidation
T5 sequence (P22309 26-533): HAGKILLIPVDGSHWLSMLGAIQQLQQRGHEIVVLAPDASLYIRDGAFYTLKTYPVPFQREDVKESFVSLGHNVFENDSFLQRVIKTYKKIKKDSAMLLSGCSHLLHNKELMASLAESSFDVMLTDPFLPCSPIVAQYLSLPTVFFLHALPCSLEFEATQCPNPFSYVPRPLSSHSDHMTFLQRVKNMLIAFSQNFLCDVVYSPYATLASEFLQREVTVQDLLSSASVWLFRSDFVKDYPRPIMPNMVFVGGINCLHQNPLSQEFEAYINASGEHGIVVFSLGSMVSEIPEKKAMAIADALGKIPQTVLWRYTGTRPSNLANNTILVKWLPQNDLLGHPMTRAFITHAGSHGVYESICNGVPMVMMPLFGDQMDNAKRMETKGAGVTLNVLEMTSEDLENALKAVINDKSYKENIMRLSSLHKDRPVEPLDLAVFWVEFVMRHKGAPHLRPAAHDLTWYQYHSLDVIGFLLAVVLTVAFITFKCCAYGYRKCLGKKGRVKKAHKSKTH

[6] = molecular target: T5, UGT1A1; experiment: SN-38 glucuronidation in human liver microsomes, cocktail, LC-MS/MS; details: 0.5 µM SN-38 (probe cocktail set A), 5 mM UDPGA, 10 mM MgCl2, alamethicin, pH 7.4, 37 °C, 60 min
[7] = molecular target: T6, UGT1A9 (Homo sapiens, UniProt O60656); experiment: mycophenolic acid glucuronidation in human liver microsomes, cocktail, LC-MS/MS; details: 0.2 µM mycophenolic acid (probe cocktail set B), 5 mM UDPGA, 10 mM MgCl2, alamethicin, pH 7.4, 37 °C, 60 min
T6 construct: native enzyme in ultrapooled human liver microsomes (Corning 452161), read by mycophenolic acid glucuronidation
T6 sequence (O60656 26-530): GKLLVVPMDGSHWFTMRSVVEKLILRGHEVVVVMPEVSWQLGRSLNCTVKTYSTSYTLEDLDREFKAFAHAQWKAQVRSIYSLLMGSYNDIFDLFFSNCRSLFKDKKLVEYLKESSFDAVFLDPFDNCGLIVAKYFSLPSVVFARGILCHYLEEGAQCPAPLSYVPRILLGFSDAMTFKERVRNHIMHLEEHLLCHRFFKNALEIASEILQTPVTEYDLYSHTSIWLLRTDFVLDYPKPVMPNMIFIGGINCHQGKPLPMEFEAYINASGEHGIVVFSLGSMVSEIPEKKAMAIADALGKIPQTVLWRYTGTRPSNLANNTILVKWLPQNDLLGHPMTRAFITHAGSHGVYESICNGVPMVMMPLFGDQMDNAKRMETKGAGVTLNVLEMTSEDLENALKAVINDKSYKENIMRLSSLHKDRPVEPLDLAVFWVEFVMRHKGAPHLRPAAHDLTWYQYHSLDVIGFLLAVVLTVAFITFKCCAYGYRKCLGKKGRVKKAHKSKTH

[8] = molecular target: T3, UGT1A3; experiment: chenodeoxycholic acid 24-acyl-glucuronidation in human liver microsomes, cocktail, LC-MS/MS; details: 2 µM chenodeoxycholic acid (probe cocktail set A), 5 mM UDPGA, 10 mM MgCl2, alamethicin, pH 7.4, 37 °C, 60 min
[9] = read-out: IC50 (μM) / Epimagnolin A
[10] = read-out: IC50 (μM) / Yangambin

SMILES | IC50 [1] [µM] | IC50 [2] [µM] | Ki [3] [µM] | IC50 ([4]; read-out: IC50 (μM) / Eudesmin) [µM] | Ki [5] [µM] | IC50 ([6]; read-out: IC50 (μM) / Eudesmin) [µM] | IC50 ([7]; read-out: IC50 (μM) / Eudesmin) [µM] | IC50 ([8]; read-out: IC50 (μM) / Eudesmin) [µM] | IC50 [4, 9] [µM] | IC50 [6, 10] [µM] | IC50 [7, 9] [µM] | IC50 [8, 10] [µM]
COc1ccc([C@H]2OC[C@H]3[C@@H]2CO[C@@H]3c2ccc(OC)c(OC)c2)cc1OC [Eudesmin] | > 200 | > 200 | 39.8 | 196 | 25.7 | 24.3 | 173 | 26.6 | – | – | – | –
COc1cc([C@H]2OC[C@H]3[C@@H]2CO[C@@H]3c2cc(OC)c(OC)c(OC)c2)cc(OC)c1OC [Yangambin] | > 200 | > 200 | 66.8 | – | 17.1 | – | – | – | > 200 | 29.7 | > 200 | 56.5

— PMC7912740 (Pharmaceutics, 2021)
